The record followed here is US20230183705A1, “PRODUCTS FOR SUPPRESSING OR REDUCING THE EXPRESSION OR ACTIVITY OF A SNORNA AND USES THEREOF IN THE TREATMENT OF CANCER” (NINOVAX, priority 2020, published 2023).

Where only a bound is given, the exact number is not on record here.

What all share (format): cell-based, human
One series concerns Ribosomes pathways. In words: Transcriptomic analysis (RNA-seq) with KEGG analysis in HCT116 cells. Conditions: HCT116, siRNA treated versus non-treated cells. As to the method: Briefly, 99 genes over 138 genes of this pathway are deregulated.
The effect of the knock-down of the snoRNA-jouvence in HCT116 cells was assessed by the transfection of short interfering RNA (siRNA). First, the cells were seeded in 12-well plates (in triplicates), with the following number of cells per well: HCT116 and MCF7: 3.0×10^4, K562: 2.5 x10^4, A549: 2.0x10^4, and U87: 6.0x10^4. […] Cell suspensions were directly transfected with the corresponding siRNA (reverse transfection) at a final concentration of 10 nM per well, using the Lipofectamine RNAiMAX transfection reagent (ThermoFisher Scientific, USA). Forty-eight hours after the first siRNA reverse transfection, a forward transfection was performed on the adherent cells (at the same concentration as the first reverse transfection). Again, forty-eight hours after the siRNA forward transfection, a second forward transfection was performed on the adherent cells (at the same concentration). Then, after 72 h (meaning at J7 from the starting point), the medium was changed and cells were counted and compared to the different controls. For the RNA extraction and RNA-seq analysis performed in HCT116 cells, cell pellets were made under the same conditions (at J7). Experiments were performed in triplicates and the specific knock-down of the snoRNA-jouvence was validated by standard RT-qPCR (TaqMan). […]
In brief, technically, RNA concentration was measured using Qubit® RNA Assay Kit in Qubit® 2.0 Flurometer (Life Technologies, CA, USA). RNA integrity was assessed using the RNA Nano 6000 Assay Kit of the Bioanalyzer 2100 system (Agilent Technologies, CA, USA). […] At last, PCR products were purified (AMPure XP system) and library quality was assessed on the Agilent Bioanalyzer 2100 system. […] After cluster generation, the library preparations were sequenced on an Illumina Hiseq platform and 125 bp/150 bp paired-end reads were generated. […]

A further series has as its system A549 cells (lung cancer). In words: Cell proliferation (cell counting) after siRNA knock-down of snoRNA-jouvence. Conditions: siRNA 10 nM, three transfections at day 0, 2, 4, cells counted at day 7. The protocol: (§1) The siRNA treatment consists of three reverse transfections applied at day 0, day 2, day 4, followed by the determination of the number of cells at day 7 for A-B-C-D. For E, a single treatment has been done at day 0, and the number of cells was counted two days later. siRNA was used at a concentration of 10 nM. Five different human cancer cell lines were used. A) HCT116 cells (colon cancer), B) MCF7 cells (breast cancer), C) U87 cells (glioblastoma), D) A549 cells (lung cancer), and E) K562 cells (leukemia). In siRNA-treated cells, inventors observed a strong reduction of the number of cells, by about 50% or more, except in E in which the reduction was about 10% probably due to the fact that only a single treatment has been performed. […] In si-RNA treated cells, inventors observed a 40% reduction of snoRNA-jouvence expression.
(§2) All human cancer cell lines were provided from ATCC. HCT116 were cultured in McCoy’s 5A medium (Gibco, Invitrogen, USA), supplemented with 10% Fetal Bovine Serum (FBS) (Biowest, France). MCF7, A549, and K562 cells were cultured in RPMI 1640 + Glutamax medium (Gibco, Invitrogen, USA), supplemented with 10% Fetal Bovine Serum (FBS) (Biowest, France). U87 cells were cultured in Dulbecco’s modified Eagle’s medium (DMEM) (Gibco), supplemented with 10% FBS. Cells were incubated at 37° C. in a humidified atmosphere containing 5% CO2. The medium was changed every two days, and cells were transferred using 0.05% trypsin/EDTA (Gibco Invitrogen).
(§3) The effect of the knock-down of the snoRNA-jouvence in HCT116 cells was assessed by the transfection of short interfering RNA (siRNA). First, the cells were seeded in 12-well plates (in triplicates), with the following number of cells per well: HCT116 and MCF7: 3.0×10^4, K562: 2.5 x10^4, A549: 2.0x10^4, and U87: 6.0x10^4. […] Cell suspensions were directly transfected with the corresponding siRNA (reverse transfection) at a final concentration of 10 nM per well, using the Lipofectamine RNAiMAX transfection reagent (ThermoFisher Scientific, USA). Forty-eight hours after the first siRNA reverse transfection, a forward transfection was performed on the adherent cells (at the same concentration as the first reverse transfection). Again, forty-eight hours after the siRNA forward transfection, a second forward transfection was performed on the adherent cells (at the same concentration). Then, after 72 h (meaning at J7 from the starting point), the medium was changed and cells were counted and compared to the different controls. For the RNA extraction and RNA-seq analysis performed in HCT116 cells, cell pellets were made under the same conditions (at J7). Experiments were performed in triplicates and the specific knock-down of the snoRNA-jouvence was validated by standard RT-qPCR (TaqMan).
(§4) Study was performed in five different human cancer cell lines, HCT116 cells (colon cancer), MCF7 cells (breast cancer), U87 cells (glioblastoma), A549 cells (lung cancer), and K562 cells (leukemia). The proliferation rate of siRNA-treated cells (snoRNA jouvence knock-down) compared to non-treated Control cells was analysed by cell counting at J7. Briefly, the supernatant was harvested and cells washed with PBS 1X. Then, cells were trypsinized with 300 µl of 0.05% trypsin/EDTA (Gibco) per well. Trypsine was inactivated with 700 µL of the corresponding medium per well, and then counted with the VicellXR (Cell viability Analyzer, Beckman Coulter).

The subject of series [1] is HCT116 cells (colon cancer). Described as above. Conditions: siRNA 10 nM, three transfections at day 0, 2, 4, cells counted at day 7. As to the method:
as §1, §2, §3, §4

The subject of series [2] is MCF7 cells (breast cancer). The description is as above. Conditions: siRNA 10 nM, three transfections at day 0, 2, 4, cells counted at day 7. As to the method:
as §1, §2, §3, §4

Another series relates to U87 cells (glioblastoma). Described as above. Conditions: siRNA 10 nM, three transfections at day 0, 2, 4, cells counted at day 7. The protocol:
as §1, §2, §3, §4

The subject of the next series is K562 cells (leukemia). The description is as above. Conditions: siRNA 10 nM, single treatment at day 0, cells counted two days later. As to the method: as §1, §2, §3, §4
Another series relates to snoRNA-jouvence. In words: Expression of the snoRNA-jouvence by RT-qPCR (Taqman) in siRNA-treated HCT116 cells. Conditions: siRNA-treated HCT116 cells compared to non-treated control HCT116 cells, siRNA 10 nM. As to the method: as §1
The effect of the knock-down of the snoRNA-jouvence in HCT116 cells was assessed by the transfection of short interfering RNA (siRNA). First, the cells were seeded in 12-well plates (in triplicates), with the following number of cells per well: HCT116 and MCF7: 3.0×10^4, K562: 2.5 x10^4, A549: 2.0x10^4, and U87: 6.0x10^4. […] Then, after 72 h (meaning at J7 from the starting point), the medium was changed and cells were counted and compared to the different controls. […]

In the case of “siRNA: silencer selected siRNA (Lock-Nucleotide-Acid siRNA) comprising SEQ ID NO: 3 as sense and SEQ ID NO: 4 as antisense sequence, against snoRNA-jouvence (sense GGCUAUUGUGGACAGAGGA; antisense UCCUCUGUCCACAAUAGCC; Silencer Select LNA-modified siRNA, pattern not given here)”, the “deregulated genes of the Ribosomes pathways (over 138 genes)” value with Ribosomes pathways was determined as 99 genes. The “downregulated genes of the Ribosomes pathways” value in the series on Ribosomes pathways is 92 genes. Moreover, the “upregulated genes of the Ribosomes pathways” value with Ribosomes pathways is recorded as 7 genes. The “reduction of the number of cells” value is listed as at least 50% in the series with A549 cells (lung cancer); at least 50% in series [1]; at least 50% in series [2]; at least 50% in the series on U87 cells (glioblastoma); “about 10%” in the series with K562 cells (leukemia). Further, the “reduction of snoRNA-jouvence expression” value with snoRNA-jouvence stood at 40%.
